In one assay the test system is rsmB RNA. Kind of assay: Northern blot analysis of rsmB RNA. The class given is cell-based, D. dadanti 3937. The note with it: bacterial cells cultured in media supplemented with compound (FIG. 23). An excerpt: Northern blot analysis was used to quantify rsmB RNA of D. dadanti 3937.
The test system of a further assay is hrpS promoter. Kind of assay: GFP reporter plasmid phrpS, flow cytometry of hrpS promoter activity. The class given is cell-based, Dickeya dadantii 3937. To be noted: reporter plasmid phrpS. How it is done: FACS analysis of promoter activity of dspE, hrpA, hrpL, hrpN, and hrpS was carried out as described (Peng et al., 2006). Briefly, the wild-type Ech3937 and the mutant strains carrying the promoter reporter plasmid were grown on LB broth at 28° C. overnight and transferred to appropriate media. For FACS analysis, samples were collected by centrifugation, washed with 1× phosphate buffer saline (PBS) at 13,000 rpm for 1 min, and re-suspended in 1×PBS to ca 10^6 CFU/ml prior to being run in a FACS Calibur flow cytometer (BD Biosciences, CA). Three replicates were performed for each treatment.
To test for an inhibitory effect on T3SS hrpS expression, the reporter plasmid phrpS was used to measure the effects of these compounds on hrpA expression.
Background: A flow cytometer gives signals particle by particle.

For assay [1], the system named is hrpA promoter (T3SS). Kind of assay: GFP reporter plasmid phrpA, flow cytometry (FACS) of hrpA promoter activity. The note with it: for mean fluorescence intensity of GFP, hrpA expression: D. dadantii 3937 (phrpA), MM + 100 μM compound; for inhibitory activity on T3SS gene (hrpA) expression, in words: D. dadantii 3937, reporter plasmid phrpA, 100 μM; for minimal effective concentration: Dickeya dadantii, read-out: minimal inhibitory concentration on hrpA expression (concentration showing inhibitory effect). The format is cell-based, Dickeya dadantii 3937. The gist of the method:
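D. dadantii (Ech) 3937 carrying the phrpA promoter–GFP transcriptional fusion was grown in T3SS minimal medium with 100 μM compound, starting from an inoculum of OD600 1.0. GFP was read by flow cytometry at 12 and 24 h. Values are mean fluorescence intensity of three replicates ± SD, with compound-free MM as control.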

Assay [2] has as its system hrpA promoter (T3SS). Kind of assay: hrpA promoter-probe phrpA in Erwinia amylovora 273, flow cytometry. The format is cell-based. The note with it: Ea273 (phrpA), HIM + 100 μM compound. The gist of the method: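 Erwinia amylovora 273 carrying an hrpA promoter–GFP fusion (pPROBE-NT) was grown in hrp-inducing medium with 100 μM compound or DMSO. Promoter activity read as GFP intensity by flow cytometry at 6 h and 9 h.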

Assay [3] has as its system hrpA promoter (T3SS). Kind of assay: hrpA promoter activity assay in DC3000 (GFP, flow cytometry). The note with it: DC3000, initial screen (100 μM). The class given is cell-based, Pseudomonas syringae pv. tomato DC3000. As to the method: Expression of hrpA was analyzed using a FACS Calibur flow cytometer as previously described (BD Biosciences, CA) (Peng et al. 2006). Wild-type DC3000 carrying the promoter-probe phrpA or pPROBE-NT (vector control) was grown in KB broth overnight and transferred to HIM or HIM supplemented with different compounds as described (Li et al. 2009). The promoter activity of hrpA in DC3000 was monitored by measuring GFP intensity using flow cytometry.
To determine the maximum concentration of TCA that will inhibit hrpA promoter activity without affecting bacterial growth, DC3000 carrying phrpA was cultured in HIM and HIM supplemented with 25 μM, 50 μM, 100 μM, 250 μM, or 500 μM of TCA. Promoter activity was measured at 6 h and 9 h as mentioned above using flow cytometry. Bacterial growth was determined by withdrawing samples of each culture and spot-plating serial dilutions onto King's B agar (King et al. 1954) in tandem with promoter activity assays. Colonies were counted after 48 h of incubation at 28° C.

For assay [4], the system named is Pseudomonas syringae pv. tomato DC3000 (HR elicitation). Kind of assay: Hypersensitive response (HR) assay in tobacco leaves. The format is in vivo. The note with it: 25, 50, 100, 250, or 500 μM, scored after 18 h. As to the method: Bacterial cells from overnight cultures grown in KB broth were resuspended in sterile dH2O. Cell suspensions were mixed with chemicals and allowed to sit for 30 minutes before plant inoculation. Nicotiana tabacum cv. Xanthi plants were used for HR assays. Tobacco leaves were pressure infiltrated by use of a needless syringe (Fu et al. 2006) with 1×10^8 cells/ml and 25 μM, 50 μM, 100 μM, 250 μM, or 500 μM TCA. Plants were photographed and assessed for macroscopic tissue collapse indicative of HR 18 h post-inoculation.
In DC3000, mutations in genes which encode components of the T3SS result in the inability to elicit HR in non-hosts (Collmer et al. 2000). Since TCA represses expression of hrpA (a major component of the T3SS) in vitro, the ability of TCA to suppress HR in planta was examined. DC3000 (OD600=0.1) with 25 μM, 50 μM, 100 μM, 250 μM, or 500 μM of TCA in DMSO was injected into leaves of tobacco (Nicotiana tabacum cv. Xanthi). Concentrations of DMSO which correspond to similar amounts of TCA were also injected into the tobacco plants as negative controls. Tobacco leaves were assessed for HR symptoms 18 hours post-infiltration. No visible signs of tissue damage or HR were observed when DMSO or TCA was separately infiltrated into the tobacco leaves (data not shown). […] This effect is most likely due to lack of a functional T3SS.

Entries after “also recorded” stand apart in the source; their conditions may differ.

Take `COc1ccc(/C=C/C(=O)NO)cc1` [Compound 125, trans-4-Methoxycinnamohydroxamic acid]: the “rsmB RNA level, Northern blot, in words” value in the assay on rsmB RNA was “reduced rsmB mRNA”. The “inhibitory effect on T3SS hrpS expression, in words” value in the assay on hrpS promoter is “inhibited hrpS”. The “mean fluorescence intensity of GFP, hrpA expression” value is given as 17.4 ± 0.9 in the assay with hrpA promoter (T3SS) [1] (12 h) and 25.6 ± 2.0 in the assay on hrpA promoter (T3SS) [1] (24 h). Also, in the assay on hrpA promoter (T3SS) [1], the “inhibitory activity on T3SS gene (hrpA) expression, in words” value is on record as “showed inhibitory effect; also recorded: potent inhibitory activity”. In the assay on hrpA promoter (T3SS) [1], the minimal effective concentration was 100 µM. In the assay on hrpA promoter (T3SS) [1] (Trial 2, MM supplemented with compound at 100 μM), the “Mean Fluorescence Intensity of GFP (hrpA, phrpA)” value stood at 25.9 ± 1.0. Also, the “Avg MFI ± SD, hrpA expression” value is reported as 215.5 ± 6.5 in the assay on hrpA promoter (T3SS) [2] (6 h) and 230.0 ± 4.4 in the assay on hrpA promoter (T3SS) [2] (9 h).
In the case of `OC/C=C/c1ccc(O)cc1` [Compound 104, para-Coumaryl alcohol], the “effect on hrpA promoter activity in initial screen of the chemical library, in words” value in the assay on hrpA promoter (T3SS) [3] was “little or no affect on hrpA promoter activity”. The “suppression of HR by DC3000 in tobacco leaves, in words” value in assay [4] is given as “ineffective at suppressing HR at all concentrations tested”. Further, in the assay with hrpS promoter, the “inhibitory effect on T3SS hrpS expression, in words” value is “inhibited hrpS”. Further, the “mean fluorescence intensity of GFP, hrpA expression” value in the assay on hrpA promoter (T3SS) [1] (12 h) stood at 3.0 ± 0.1; in the assay on hrpA promoter (T3SS) [1] (24 h) it was 12.9 ± 1.8. Moreover, the “inhibitory activity on T3SS gene (hrpA) expression, in words” value in the assay on hrpA promoter (T3SS) [1] is reported as “showed inhibitory effect; also recorded: potent inhibitory activity”. Further, the minimal effective concentration with hrpA promoter (T3SS) [1] was 100 µM. Further, the “Mean Fluorescence Intensity of GFP (hrpA, phrpA)” value with hrpA promoter (T3SS) [1] (Trial 1, MM supplemented with compound at 100 μM) turned out to be 6.0 ± 1.4. Besides, the results for the “Avg MFI ± SD, hrpA expression” value with hrpA promoter (T3SS) [2] (6 h) and with hrpA promoter (T3SS) [2] (9 h) were 814.7 ± 55.2 and 556.9 ± 40.3, respectively.

Source of the values: patent US9260382B2, “Methods of reducing virulence in bacteria” (priority 2010, dated 2016).
